From patent US5914343A, “Compounds and methods for inhibiting hyper-proliferative cell growth” (Sugen, Inc., priority 1997, dated 1999)
Converted amounts (≈) assume the structure as drawn. Counter-ions that a name gives are not always drawn. Like-named read-outs stand apart in the source and are kept apart here.

Columns and labels:
C6 cells = assay: In vitro tumor inhibition: anchorage-dependent C6 cell growth assay (sulforhodamine B); format: cell-based; settings: for IC50: Rattus norvegicus, C6 cells, 2000 cells/well, 4 days, 37° C., SRB stain
Description: The assay measures protein content of acid-fixed cells using the counterion binding dye sulforhodamine B (SRB, Sigma).
AA10 and AA12 were solubilized in DMSO (Sigma, cell culture grade), and AA14 was dissolved in PBS (pH 7.4), the compounds were diluted into appropriate growth medium at two-fold the desired final assay concentration.
Compound (100 μL) was added to 96-well plates containing attached cellular monolayers C6 cells (2000 cells/well in 100 μL). After 4 days (37° C., 5% CO2) the monolayers were washed 3 times with PBS and fixed with 200 μL ice-cold 10% trichloroacetic acid (TCA) (Fisher Scientific), and kept at 4° C. for 60 minutes. The TCA was removed and the fixed monolayers were washed 5 times with tap water and allowed to dry completely at room temperature on absorbent paper. The cellular protein was stained for 10 min with 100 μL 0.4% SRB dissolved in 1% acetic acid. After 5 washes with tap water, the dye was solubilized in 10 mM Tris base (100 μL per well) and absorbance read at 570 nm on a Dynatech plate reader model MR5000. Growth inhibition data are expressed as aL percentage of absorbance detected in control wells which were treated with 0.4% DMSO or PBS alone. […] IC50 values were determined using a four parameter curve fit function.

Solubility of compounds = format: physicochemical
C6 glioma cells = assay: In vivo tumor inhibition: subcutaneous Xenograft model with C6 glioma cells in mice; parameters: species or system mice (BALB/c, nu/nu); settings: for Inhibition of tumor growth (FIGS. 1, 2, and 3): IP injection, 15 mg/kg/day, AA10 and AA12 in DMSO, AA14 in PBS
Description: In vivo tumor inhibition was measured using a subcutaneous Xenograft model.
C6 cells were maintained in Ham's F10 supplemented with 10% fetal bovine serum (FBS) and 2 mM glutamine (GLN). Cells were harvested at or near confluence with 0.05% Trypsin-EDTA and pelleted at 450×g for 10 min. Pellets were resuspended in sterile PBS or media (without FBS) to a particular concentration and the cells were implanted into the hindflank of mice. Tumor growth was measured over 3 to 6 weeks using venier calipers. Tumor volumes were calculated as a product of length x width x height unless otherwise indicated. AA10 and AA12 were solubilized in 50-100 μL vehicle (DMSO) while AA14 was dissolved in PBS (pH 7.4). The compounds were delivered by IP injection at 15 mg/kg/day.
The compound was dissolved in phosphate buffered saline and the animals were treated with 30 mg/kg/day and 50 mg/kg/day.

[1] = Toxicity studies (LD50, LD10, organ damage) in mice; format: in vivo; settings: mouse, in vivo
Description: (§1) Toxicity studies were carried out in animal models for AA10, AA12 and AA14. AA10 and AA12 were solubilized in DMSO and AA14 was dissolved in PBS (pH 7.4). The dosage resulting in a 50% mortality rate (LD50) and a 10% mortality rate (LD10) was determined as described below.
(§2) Five mice (BALB/c) were treated with different concentrations of compound. […] The LD50 was calculated from a plot of % mortality versus dose (log M) using a four parameter logistic equation.
(§3) At the end of the experiment an animal from each study administered with 100 mg/kg of compound was sacrificed and pathologically analyzed for organ damage.

mice (BALB/c) = assay: as above; format: in vivo
Description: as §1, §2, §3

[2] = Stability compared with leflunomide; format: physicochemical
[3] = system: autoimmune animal diseases; settings: Bartlett R. R. et al., Agents and Actions 32:10-21 (1991); cited from earlier work
[4] = organic solvent or mixture, in DMSO, read-out: Solubility in DMSO
[5] = mice (BALB/c), observed 7 to 14 days after last dose, AA10 and AA12 in DMSO, AA14 in PBS

Q: With CC(O)=C(C#N)C(=S)Nc1ccc(F)cc1Br [Compound 7, 3-hydroxy-3-methyl-2-[(2-bromo-4-fluorophenyl)aminothiocarbonyl]acrylonitrile] as the compound, how does the IC50 (C6 cells; 96 h) read?
A: 36.7 µM

Q: Which IC50 (C6 cells; 96 h) does the source give for CC(O)=C(C#N)S(=O)(=O)Nc1ccc(C(F)(F)F)cc1 [AA17, 1-Cyano-2-hydroxy-1-(4-trifluoromethylphenylaminosulfonyl)propene] here?
A: 30 µM

Q: For CC(O)=C(C#N)C(=S)Nc1cccc(Cl)c1Cl [Compound 32, 3-hydroxy-3-methyl-2-[(2,3-dichlorophenyl)aminothiocarbonyl]acrylonitrile], which IC50 (C6 cells; 96 h) is on record?
A: 35.3 µM

Q: With CC(O)=C(C#N)C(=S)Nc1ccc(Cl)c(Cl)c1 [Compound 37, 3-hydroxy-3-methyl-2-[(3,4-dichlorophenyl)-aminothiocarbonyl]acrylonitrile] as the compound, how does the IC50 (C6 cells; 96 h) read?
A: 6.1 µM

Q: What does the source list for Cc1oncc1C(=S)Nc1ccc(C(F)(F)F)cc1 [AA10, 5-Methyl-4-(4-trifluoromethylphenyl)aminothiocarbonylisoxazole]?
A: Solubility in ethanol compared with leflunomide (Solubility of compounds; in ethanol): more soluble in ethanol; solubility (Solubility of compounds; [4]): ≥ 1000 mg/mL; Inhibition of hyper-proliferative cell growth (in words) (C6 cells): able to inhibit hyper-proliferative cell growth; IC50 (C6 cells; 96 h): 2 µM; Inhibition of tumor growth (FIGS. 1, 2, and 3) (C6 glioma cells): inhibit tumor growth; LD50 [1, 5]: 96 mg/kg; LD10 (mice (BALB/c); [5]): 77 mg/kg; Stability compared with leflunomide [2]: appears to be more stable than leflunomide

Q: With CC(O)=C(C#N)S(=O)(=O)Nc1ccc(C(F)(F)F)cc1 [AA18, 1-cyano-2-hydroxy-1-(4-trifluoromethylphenylaminosulfonyl)propene sodium salt] as the compound, how does the IC50 (C6 cells; C6, 96 h) read?
A: 24 µM

Q: For CC(O)=C(C#N)C(=S)Nc1ccc(C(F)(F)F)cc1.[Na], which “Solubility in PBS (in words)” value (Solubility of compounds; AA14 compared with leflunomide and its hydroxycrotonamide metabolite) is on record?
A: soluble in PBS

Q: What about the solubility (Solubility of compounds; aqueous buffer, in PBS (phosphate buffered saline at pH 7.4), read-out: Solubility in PBS) of the same compound?
A: 275 mg/mL

Q: And the “Tumor inhibition at higher AA14 concentrations (FIG. 4)” value (C6 glioma cells; 30 mg/kg/day and 50 mg/kg/day in phosphate buffered saline)?
A: increased tumor inhibition

Q: What about the “Inhibition of tumor growth (FIGS. 1, 2, and 3)” value (C6 glioma cells) of the same compound?
A: inhibit tumor growth

Q: And the LD50 [1]?
A: 145 mg/kg

Q: What about the LD10 (mice (BALB/c); mouse, in vivo) of the same compound?
A: 120 mg/kg

Q: Which “Preventing and curing autoimmune animal diseases” value [3] does the source give for Cc1oncc1C(=O)Nc1ccc(C(F)(F)F)cc1 [leflunomide, 5-methylisoxazole-4 carboxylic acid-(4-trifluromethyl)-anilide, reference compound] here?
A: very effective in preventing and curing several autoimmune animal diseases

Q: With CC(O)=C(C#N)C(=S)Nc1ccccc1C(F)(F)F [Compound 12, 3-hydroxy-3-methyl-2-[[2-(trifluoromethyl)-phenyl]aminothiocarbonyl]acrylonitrile] as the compound, how does the IC50 (C6 cells; 96 h) read?
A: > 100 µM

Q: With CC(O)=C(C#N)C(=S)Nc1cccc(C(F)(F)F)c1 [Compound 17, 3-hydroxy-3-methyl-2-[[3-(trifluoromethyl)phenyl]aminothiocarbonyl]acrylonitrile] as the compound, how does the IC50 (C6 cells; 96 h) read?
A: 15.2 µM

Q: Which IC50 (C6 cells; 96 h) does the source give for CC(O)=C(C#N)C(=S)Nc1ccc(S(N)(=O)=O)cc1 [Compound 27, 3-hydroxy-3-methyl-2-[[4-(aminosulfonyl)phenyl]aminothiocarbonyl]acrylonitrile] here?
A: > 20 µM

Q: For CC(O)=C(C#N)C(=S)Nc1ccc(C(F)(F)F)cc1 [AA12, 1-Cyano-2-hydroxy-1-(4-trifluoromethylphenyl)aminothiocarbonylpropene], which solubility (Solubility of compounds; [4]) is on record?
A: 400 mg/mL (≈ 1400 mM)

Q: And the “Inhibition of hyper-proliferative cell growth (in words)” value (C6 cells)?
A: able to inhibit hyper-proliferative cell growth

Q: And the IC50 (C6 cells; 96 h)?
A: 0.8 µM

Q: What about the “Inhibition of tumor growth (FIGS. 1, 2, and 3)” value (C6 glioma cells) of the same compound?
A: inhibit tumor growth

Q: And the LD50 [1, 5]?
A: 79 mg/kg

Q: What about the LD10 (mice (BALB/c); [5]) of the same compound?
A: 62 mg/kg

Q: Which IC50 (C6 cells; 96 h) does the source give for CC(O)=C(C#N)C(=S)Nc1ccc(S(=O)(=O)N2CCCCC2)cc1 [Compound 22, 3-hydroxy-3-methyl-2-[[4-(piperidine-1-sulfonyl)-phenyl]aminothiocarbonyl]acrylonitrile] here?
A: 24.3 µM

Q: With N#CC(C(=S)Nc1ccc(C(F)(F)F)cc1)=C(O)C1CC1 [Compound 3, 3-cyclopropyl-3-hydroxy-2-[(4-trifluoromethylphenyl)aminothiocarbonyl]acrylonitrile] as the compound, how does the IC50 (C6 cells; 96 h) read?
A: < 1 µM

Q: Which IC50 (C6 cells; 96 h) does the source give for C=C(C)C(O)=C(C#N)C(=S)Nc1ccc(C(F)(F)F)cc1 [Compound 6, 3-hydroxy-3-(propen-2-yl)-2-[[4-(trifluoro-methyl)-phenyl]aminothiocarbonyl]acrylonitrile] here?
A: 31.2 µM

Q: For CC(O)=C(C#N)C(=S)Nc1ccc(Cl)cc1Cl [Compound 42, 3-hydroxy-3-methyl-2-[(2,4-dichlorophenyl)aminothiocarbonyl]acrylonitrile], which IC50 (C6 cells; 96 h) is on record?
A: 53.3 µM
